In brackets after ≈: the same amount, converted by molar mass.
Assays:
[1] = X-ray diagnostic imaging of the GI tract; assay type: in vivo, rats; conditions: for Imaging efficacy, stabilized with Pluronic F88: milled with F88
Protocol: X-ray diagnostic imaging was performed in anesthetized rats with the exception of G05-R1 samples which were imaged in fasted and anesthetized ferrets. Images were obtained using the Siemens C-Arm Siremobil 3U x-ray unit. The imaging dose was 10 ml/kg administered via gastric intubation to the anesthetized animal. X-rays were taken at 15, 30, 45 and 60 minutes and at 1, 2, 5 and 24 hours post-dose. […]
Images were evaluated by the criteria of: coating, homogeneity, rate of gastric emptying and the total transit time. These are considered to be a measure of the stability of the nanosuspension during transit down the GI tract and the ability of the formulation to image the lower gastrointestinal tract. Nanosuspensions were rated excellent when there was a uniform coating with transradiation of long intestinal segments, sufficient radiodensity to delineate anatomical structure, rapid emptying and transit, and stability and homogeneity during GI transit. A plus sign (+) was assigned when imaging in the lower GI was exceptional, a minus sign (-) as given when it was not. […] All other nanosuspensions were compared with this formulation.

[2] = Aqueous solubility; assay type: physicochemical; conditions: water, Table 3
[3] = X-ray diagnostic imaging of the GI tract; assay type: in vivo; conditions: ferrets; milled in Pluronic F127
Protocol: X-ray diagnostic imaging was performed in anesthetized rats with the exception of G05-R1 samples which were imaged in fasted and anesthetized ferrets. Images were obtained using the Siemens C-Arm Siremobil 3U x-ray unit. The imaging dose was 10 ml/kg administered via gastric intubation to the anesthetized animal. X-rays were taken at 15, 30, 45 and 60 minutes and at 1, 2, 5 and 24 hours post-dose. A 10-15 ml volume of air was introduced to the animal at 30 minutes to produce a double contrast image.
Images were evaluated by the criteria of: coating, homogeneity, rate of gastric emptying and the total transit time. These are considered to be a measure of the stability of the nanosuspension during transit down the GI tract and the ability of the formulation to image the lower gastrointestinal tract. Nanosuspensions were rated excellent when there was a uniform coating with transradiation of long intestinal segments, sufficient radiodensity to delineate anatomical structure, rapid emptying and transit, and stability and homogeneity during GI transit. A plus sign (+) was assigned when imaging in the lower GI was exceptional, a minus sign (-) as given when it was not. The nanosuspension of WIN 8883 milled in Pluronic F127, was considered to be excellent for both upper and lower GI imaging in both rats and ferrets. All other nanosuspensions were compared with this formulation.

SMILES	Imaging efficacy, overall [1]	solubility [2]	Lower GI imaging [1]	also measured
CCCCC(CC)COC(=O)CC(C(=O)OCC(CC)CCCC)S(=O)(=O)O (stereo not shown) [DOSS, dioctylsulfosuccinate]				Stabilizing effect on imaging efficacy ([1]; stabilizer for WIN 8883 nanosuspension): fair
CCOC(=O)c1c(I)c(NC(C)=O)c(I)c(NC(C)=O)c1I [WIN 8883, Ethyl 3,5-bis(acetylamino)-2,4,6-triiodobenzoate]	excellent	< 5 µg/mL		Imaging efficacy, stabilized with Pluronic F88 [1]: excellent imaging, and then only in the upper GI; Upper and lower GI imaging ([1]; rats, milled in Pluronic F127): excellent; Upper and lower GI imaging [3]: excellent
CCOC(=O)c1c(I)c(NC(C)=O)c(I)c(C(=O)OCC)c1I [WIN 59316, Diethyl 5-acetylamino-2,4,6-triiodo-isophthalate]	fair	1 µg/mL (≈ 1.52 µM)	imaging well in the lower GI tract	
CCOC(=O)CCCCCOC(=O)c1c(I)c(NC(C)=O)c(I)c(NC(C)=O)c1I [WIN 67722, 6-Ethoxy-6-oxohexyl 3,5-bis(acetylamino)-2,4,6-triiodobenzoate]		2 µg/mL (≈ 2.65 µM)	poor	Upper GI imaging [1]: good
COc1ccc(COC(=O)c2c(I)c(NC(C)=O)c(I)c(NC(C)=O)c2I)cc1 [WIN 67754, 3,5-Bis-acetylamino-2,4,6-triiodo-benzoic acid 4-methoxy-benzyl ester]	good	15 µg/mL (≈ 20.4 µM)	exceptional	
CC(=O)Nc1c(I)c(NC(C)=O)c(I)c(C(=O)OCc2ccc(C(=O)OC(C)C)cc2)c1I [WIN 67956, 3,5-Bis-acetylamino-2,4,6-triiodo-benzoic acid 4-isopropyl benzoate ester]	good	1 µg/mL (≈ 1.27 µM)		Gastric emptying [1]: very rapid gastric emptying; Coating ([1]; repeated with air given at 15 minutes to induce double contrast): No improvement in coating
CCOC(=O)C(C)(OC(=O)c1c(I)c(NC(C)=O)c(I)c(NC(C)=O)c1I)C(=O)OCC [WIN 67975]	fair	8 µg/mL (≈ 10.2 µM)		
CC(=O)Nc1c(I)c(NC(C)=O)c(I)c(C(=O)OCCCCCC(=O)OC(C)C)c1I [WIN 67995, 3,5,-Bis-acetylamino-2,4,6-triiodo-benzoic acid 5-isopropoxycarbonyl-pentylester]		1 µg/mL (≈ 1.3 µM)	poor	Upper GI imaging [1]: good
CC(=O)Nc1c(I)c(NC(C)=O)c(I)c(C(=O)OC(C(=O)OC(C)C)C(=O)OC(C)C)c1I [WIN 68165, Propanedioic Acid, [[3,5-bis-(acetylamino)-2,4,6-triiodo-benzoyl]oxy]-bis(1-methylethyl)ester]	fair	1 µg/mL (≈ 1.25 µM)		
CCOC(=O)C(CC)OC(=O)c1c(I)c(NC(C)=O)c(I)c(C(=O)OC(CC)C(=O)OCC)c1I (stereo not shown) [WIN 68183, Bis-[1-(ethoxycarbonyl)propyl]-2,4,6-triiodo-5-acetylamino-isophthalate]	excellent	< 1 µg/mL	not as definitive as with WIN 8883	Imaging efficacy, stabilized with Pluronic F88 [1]: loss of efficacy
CCc1c(I)c(CC)c(I)c(CC)c1I [WIN 68756, 1,3,5-Triethyl-2,4,6-triiodobenzene]	excellent	< 1 µg/mL	not as definitive as with WIN 8883	Imaging efficacy, stabilized with Pluronic F88 [1]: loss of efficacy

Source: patent US5466440A, “Formulations of oral gastrointestinal diagnostic X-ray contrast agents in combination with pharmaceutically acceptable clays” (Eastman Kodak Company, priority 1994, dated 1995)
